Results published in ChEMBL document CHEMBL4725277, “Synthetic and therapeutic perspectives of nitrogen containing heterocycles as anti-convulsants” (Bioorg Med Chem, 2020).

Experiments:
[1] = Neurotoxicity in ip injected albino mouse; format: toxicity, organism-based; conditions: in vivo
[2] = Protective index, ratio of TD50 for neurotoxicity in ip injected albino mouse to ED50 for anticonvulsant activity in ip injected albino mouse assessed as protection against 50 mA current-induced seizure; format: toxicity, organism-based; conditions: in vivo
Mus musculus [3] = experiment: Anticonvulsant activity in ip injected albino mouse assessed as protection against 50 mA current-induced seizure by maximal electroshock seizure test; format: functional
[4] = Protective index, ratio of TD50 for neurotoxicity in mouse to ED50 for anticonvulsant activity in mouse assessed as protection against pentylenetetrazole-induced seizure; format: toxicity; conditions: in vivo, read-out: PI
[5] = Neurotoxicity in mouse by rotarod test; format: toxicity; conditions: in vivo
Mus musculus [6] = species on record: Mus musculus; experiment: Anticonvulsant activity in mouse assessed as protection against current-induced seizure by maximal electroshock seizure test; format: functional
Mus musculus [7] = species on record: Mus musculus; experiment: Anticonvulsant activity in albino mouse assessed as pentylenetetrazole-induced seizure; format: functional
[8] = Protective index, ratio of TD50 for neurotoxicity in mouse to ED50 for anticonvulsant activity in mouse assessed as protection against current-induced seizure; format: toxicity; conditions: in vivo, read-out: PI
Mus musculus [9] = species on record: Mus musculus; experiment: Anticonvulsant activity in albino mouse assessed as current-induced seizure latency time; format: functional
Mus musculus [10] = species on record: Mus musculus; experiment: Anticonvulsant activity in albino mouse assessed as current-induced seizure relative to control; format: functional
Mus musculus [11] = experiment: Anticonvulsant activity in albino mouse assessed as protection against 50 mA current-induced seizure at 50 mg/kg by maximal electroshock seizure test relative to control; format: functional
Mus musculus [12] = species on record: Mus musculus; experiment: Anticonvulsant activity in albino mouse assessed as protection against 50 mA current-induced seizure; format: functional; conditions: read-out: PD50
Mus musculus [13] = experiment: Anticonvulsant activity in albino mouse assessed as protection against 50 mA current-induced seizure at 100 mg/kg by maximal electroshock seizure test relative to control; format: functional
Mus musculus [14] = experiment: Anticonvulsant activity in albino mouse assessed as protection against 50 mA current-induced seizure at 200 mg/kg by maximal electroshock seizure test relative to control; format: functional
Mus musculus [15] = experiment: Anticonvulsant activity in ip injected albino mouse assessed as protection against 50 mA current-induced seizure after 0.5 to 4 hrs interval by maximal electroshock seizure test; format: functional; conditions: time hrs 0.5-4
Mus musculus [16] = species on record: Mus musculus; experiment: Anticonvulsant activity in albino mouse assessed as pentylenetetrazole-induced seizure measured after 30 mins; format: functional; conditions: 0.5 h
[17] = Protective index, ratio of TD50 for neurotoxicity in ip injected albino mouse to ED50 for anticonvulsant activity in albino mouse assessed as pentylenetetrazole-induced seizure; format: toxicity, organism-based; conditions: in vivo
[18] = Lipophilicity, log P of the compound; format: physicochemical; conditions: octanol/water
[19] = Protective index, ratio of TD50 for neurotoxicity in ip and po injected mouse to ED50 for anticonvulsant activity in mouse assessed as protection against 50 mA current-induced seizure; format: toxicity, organism-based; conditions: in vivo, read-out: PI
Mus musculus [20] = species on record: Mus musculus; experiment: Anticonvulsant activity in mouse assessed as protection against 50 mA current-induced seizure after 0.5 hrs by maximal electroshock seizure test; format: functional
[21] = Neurotoxicity in ip and po injected mouse; format: toxicity, organism-based; conditions: in vivo
[22] = Neurotoxicity in albino rat at 100 mg/kg, ip after 30 mins (reference value: 2%); format: toxicity, organism-based; conditions: in vivo, 0.5 h
[23] = Neurotoxicity in KunMing mouse after 30 mins by rotarod test; format: toxicity; conditions: in vivo
Mus musculus [24] = species on record: Mus musculus; experiment: Anticonvulsant activity in KunMing mouse assessed as protection against 50 mA current-induced seizure after 30 mins interval by maximal electroshock seizure test; format: functional; conditions: 0.5 h
Mus musculus [25] = species on record: Mus musculus; experiment: Anticonvulsant activity in KunMing mouse assessed as protection against 50 mA current-induced seizure after 0.5 to 4 hrs by maximal electroshock seizure test; format: functional; conditions: time hrs 0.5-4
Mus musculus [26] = species on record: Mus musculus; experiment: Anticonvulsant activity in KunMing mouse assessed as protection against current-induced seizure by maximal electroshock seizure test; format: functional
Mus musculus [27] = species on record: Mus musculus; experiment: Anticonvulsant activity in albino mouse assessed as protection against 50 mA current-induced seizure by maximal electroshock seizure test; format: functional
Mus musculus [28] = species on record: Mus musculus; experiment: Anticonvulsant activity in KunMing mouse assessed as protection against pentylenetetrazole-induced seizure by maximal electroshock seizure test; format: functional
[29] = Neurotoxicity in KunMing mouse by rotarod test; format: toxicity; conditions: in vivo
Mus musculus [30] = experiment: Anticonvulsant activity in albino mouse assessed as protection against 50 mA current-induced seizure at 30 mg/kg by maximal electroshock seizure test relative to control; format: functional
Mus musculus [31] = experiment: Anticonvulsant activity in albino mouse assessed as protection against 50 mA current-induced seizure at 20 mg/kg by maximal electroshock seizure test relative to control; format: functional
Mus musculus [32] = experiment: Anticonvulsant activity in albino mouse assessed as protection against 50 mA current-induced seizure at 10 mg/kg by maximal electroshock seizure test relative to control; format: functional
Mus musculus [33] = experiment: Anticonvulsant activity in albino mouse assessed as protection against 50 mA current-induced seizure at 25 mg/kg by maximal electroshock seizure test relative to control; format: functional

Compound: Nc1nc(-c2ccccc2)nnc1C(=O)N1CCCC1c1noc2cc(F)ccc12 (configuration not stated)
- TD50 [1]: > 300 mg/kg
- selectivity ratio ([2]; read-out: Ratio): > 48.4
- ED50 (Mus musculus [3]): 6.2 mg/kg

Compound: CN(C)c1ccc(C2CC(c3ccccc3)=NC(=S)N2C(=S)Nc2ccccc2)cc1 (configuration not stated)
- selectivity ratio [4]: 1.7
- TD50 [5]: 580 mg/kg
- ED50 (Mus musculus [6]): 32.2 mg/kg
- ED50 (Mus musculus [7]): 332 mg/kg
- selectivity ratio [8]: 18

Compound: CC(=O)Oc1cc2ccccc2cc1-c1nnc(N(C(C)=O)c2cccc(F)c2)s1
- Time (Mus musculus [9]): 4.41 min
- Activity (Mus musculus [10]): 70%

Compound: O=C(CNC(=O)c1ccncc1)Nn1c(COc2ccc(Cl)cc2Cl)nc2ccccc2c1=O
- Activity (Mus musculus [11]): 50%
- ED50 (Mus musculus [12]): 103 mg/kg
- Activity (Mus musculus [13]): 70%
- Activity (Mus musculus [14]): 80%

Compound: S=C1N=C(c2ccccc2)CC(c2ccccc2)N1c1ccc(Cl)cc1 (configuration not stated)
- TD50 [1]: 420 mg/kg
- selectivity ratio ([2]; read-out: PI): 21.6
- ED50 (Mus musculus [15]): 19.4 mg/kg
- ED50 (Mus musculus [16]): 312 mg/kg
- selectivity ratio ([17]; read-out: PI): 1.3

Compound: COc1ccc(-c2nc(N/N=C/c3cccc(F)c3)[nH]c(=O)c2C#N)cc1
- logP [18]: 2.13

Compound: Nc1nc(-c2ccccc2)nnc1C(=O)N1CCCC1c1noc2cc(Br)ccc12 (configuration not stated)
- TD50 [1]: > 100 mg/kg
- selectivity ratio ([2]; read-out: Ratio): > 8.22
- ED50 (Mus musculus [3]): 12.2 mg/kg

Compound: O=c1c2ccccc2n2cnnc2n1-c1ccc(Br)cc1
- selectivity ratio [19]: > 26
- ED50 (Mus musculus [20]): 26.89
- TD50 [21]: > 700 mg/kg

Compound: Nc1ccc(Cl)cc1-c1n[nH]c(=O)n(-c2ccc(O)cc2)c1=O
- TD50 [1]: 682 mg/kg
- selectivity ratio ([2]; read-out: Ratio): 13.6
- ED50 (Mus musculus [3]): 51.1 mg/kg
- ED50 (Mus musculus [7]): 95.3 mg/kg
- selectivity ratio ([17]; read-out: Ratio): 7.15

Compound: Nc1nnc(C(=O)N2CCCC2c2noc3cc(F)ccc23)c(N)n1 (configuration not stated)
- TD50 [1]: > 200 mg/kg
- selectivity ratio ([2]; read-out: Ratio): > 28.2
- ED50 (Mus musculus [3]): 7.1 mg/kg

Compound: CN(C)CCOc1ccc2c(c1)/C(=N/NC(N)=O)C(=O)N2
- Activity [22]: 7%

Compound: CN(C)Nc1ccc(/C=N/Nc2nnc(-c3ccccc3)nc2Cc2ccc(Cl)cc2)cc1
- TD50 [1]: 360 mg/kg
- selectivity ratio ([2]; read-out: Ratio): 7.82
- ED50 (Mus musculus [15]): 46 mg/kg
- ED50 (Mus musculus [16]): 83.9 mg/kg
- selectivity ratio ([17]; read-out: Ratio): 4.29

Compound: NC(=O)N1c2ccccc2C=Cc2ccccc21 [CARBAMAZEPINE]
- TD50 [1]: 65.5 mg/kg
- TD50 [5]: 11.8 mg/kg
- ED50 (Mus musculus [15]): 8.8 mg/kg
- TD50 at 0.5 h [23]: 69.1 mg/kg
- ED50 (Mus musculus [16]): > 100 mg/kg
- ED50 (Mus musculus [6]): 11.8 mg/kg
- ED50 (Mus musculus [7]): > 100 mg/kg
- ED50 (Mus musculus [24]): 10.1 mg/kg
- ED50 (Mus musculus [25]): 9.8 mg/kg
- ED50 (Mus musculus [26]): 11.8 mg/kg

Compound: CN1C(=O)CN=C(c2ccccc2)c2cc(Cl)ccc21 [DIAZEPAM]
- Activity [22]: 88%
- ED50 (Mus musculus [16]): 0.7 mg/kg
- ED50 (Mus musculus [27]): 0.8 mg/kg

Compound: CCC1(C)CC(=O)NC1=O (configuration not stated) [ETHOSUXIMIDE]
- selectivity ratio ([2]; read-out: Ratio): < 0.44
- ED50 (Mus musculus [28]): 106 mg/kg
- ED50 (Mus musculus [3]): > 1000 mg/kg
- ED50 (Mus musculus [7]): 130 mg/kg
- selectivity ratio ([17]; read-out: Ratio): 3.39
- TD50 [29]: 343 mg/kg

Compound: CCC1(c2ccccc2)C(=O)NC(=O)NC1=O [PHENOBARBITAL]
- ED50 (Mus musculus [12]): 14.4 mg/kg
- Activity (Mus musculus [30]): 100%
- Activity (Mus musculus [31]): 60%
- ED50 (Mus musculus [6]): 21.8 mg/kg
- Activity (Mus musculus [32]): 40%
- ED50 (Mus musculus [25]): 21.8 mg/kg

Compound: O=C1N=C([O-])NC1(c1ccccc1)c1ccccc1.[Na+] [PHENYTOIN SODIUM]
- Activity (Mus musculus [33]): 100%

Compound: O=C1NC(=O)C(c2ccccc2)(c2ccccc2)N1 [PHENYTOIN]
- ED50 (Mus musculus [15]): 8.8 mg/kg
- ED50 (Mus musculus [16]): > 100 mg/kg
- ED50 (Mus musculus [7]): > 300 mg/kg

Compound: CCCC(CCC)C(=O)[O-].[Na+] [VALPROATE SODIUM]
- TD50 [1]: 42.6 mg/kg
- ED50 (Mus musculus [15]): 272 mg/kg

Compound: CCCC(CCC)C(=O)O [VALPROIC ACID]
- Time (Mus musculus [9]): 7.2 min
